Assay results as given in ChEMBL document CHEMBL1141902, “Functionalization at position 3 of the phenyl ring of the potent mGluR5 noncompetitive antagonists MPEP” (Bioorg Med Chem Lett, 2005).
pIC50, pKi: −log10 of the molar value.

Key:
[1] = molecular target: T1, Metabotropic glutamate receptor 5 (Rattus norvegicus, UniProt P31424); assay: In vitro binding affinity of compound towards rat metabotropic glutamate receptor 5 was determined by displacement of [3H]M-MPEP from rat whole brain
[2] = molecular target: T1, Metabotropic glutamate receptor 5; assay: Concentration required for 50% inhibition of rat metabotropic glutamate receptor 5 was determined using inositol phosphate hydrolysis assay

T1 sequence (P31424 whole entry): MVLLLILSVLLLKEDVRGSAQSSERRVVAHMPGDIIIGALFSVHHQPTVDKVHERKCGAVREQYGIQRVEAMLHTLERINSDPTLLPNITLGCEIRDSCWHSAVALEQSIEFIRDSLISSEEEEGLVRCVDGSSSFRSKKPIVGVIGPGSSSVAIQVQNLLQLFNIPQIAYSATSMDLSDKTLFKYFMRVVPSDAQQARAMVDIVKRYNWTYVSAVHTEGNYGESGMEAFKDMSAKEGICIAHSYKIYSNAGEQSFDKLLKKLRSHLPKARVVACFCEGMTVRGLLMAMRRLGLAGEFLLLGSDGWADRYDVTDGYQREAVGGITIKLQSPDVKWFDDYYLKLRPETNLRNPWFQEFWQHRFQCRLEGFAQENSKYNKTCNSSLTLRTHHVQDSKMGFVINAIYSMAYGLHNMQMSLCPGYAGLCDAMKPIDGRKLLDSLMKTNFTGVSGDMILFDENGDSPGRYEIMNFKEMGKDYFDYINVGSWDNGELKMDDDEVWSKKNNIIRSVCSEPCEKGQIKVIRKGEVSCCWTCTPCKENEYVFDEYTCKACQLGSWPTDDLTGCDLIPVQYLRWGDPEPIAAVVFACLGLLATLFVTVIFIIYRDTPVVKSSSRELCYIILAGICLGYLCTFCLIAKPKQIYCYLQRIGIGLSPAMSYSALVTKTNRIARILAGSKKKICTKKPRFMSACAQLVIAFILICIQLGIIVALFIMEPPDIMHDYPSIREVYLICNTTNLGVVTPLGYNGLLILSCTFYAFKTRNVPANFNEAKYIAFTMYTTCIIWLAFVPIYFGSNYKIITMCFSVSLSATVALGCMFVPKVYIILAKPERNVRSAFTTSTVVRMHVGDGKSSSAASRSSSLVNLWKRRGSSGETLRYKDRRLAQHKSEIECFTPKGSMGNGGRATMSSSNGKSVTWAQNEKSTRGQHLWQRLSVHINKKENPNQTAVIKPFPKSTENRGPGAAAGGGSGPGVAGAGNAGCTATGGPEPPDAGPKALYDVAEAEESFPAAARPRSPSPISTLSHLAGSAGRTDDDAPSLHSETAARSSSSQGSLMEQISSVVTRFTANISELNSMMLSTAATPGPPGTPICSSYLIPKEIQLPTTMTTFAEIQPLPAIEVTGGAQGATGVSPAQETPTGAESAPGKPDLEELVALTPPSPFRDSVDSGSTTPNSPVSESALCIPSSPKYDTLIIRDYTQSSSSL

`Cc1cccc(C#Cc2cncc(-c3ccccc3)c2)n1` showed a pKi [1] of 8.77 and a pIC50 [2] of 7.70.

For `COc1cccc(-c2cccc(C#Cc3cccc(C)n3)c2)c1`, the pKi [1] was 5.63 and the pIC50 [2] was 6.31.

With `CC(=O)c1cccc(C#Cc2cccc(C)n2)c1` the pIC50 [2] was 6.84.

In the case of `Cc1cccc(C#Cc2cncc(-c3cccc(C)n3)c2)n1`, the pKi [1] was 7.89 and the pIC50 [2] was 6.59.

`COc1cccc(-c2cncc(C#Cc3cccc(C)n3)c2)c1` was tested, and the pKi [1] was 7.13 and the pIC50 [2] was 6.55.

With `Cc1cccc(C#Cc2cccc(OC(=O)Cc3ccccc3)c2)n1` the pIC50 [2] was 6.13.

`Cc1cccc(C#Cc2cccc(OC(=O)c3ccco3)c2)n1` showed a pIC50 [2] of 6.00.

In the case of `COC(=O)COc1cccc(C#Cc2cccc(C)n2)c1`, the pIC50 [2] was 5.62.

`C=CCOc1cccc(C#Cc2cccc(C)n2)c1` was tested, and the pIC50 [2] was 6.54.

`Cc1cccc(C#Cc2cncc(-c3cccs3)c2)n1` was tested, and the pKi [1] was 6.81 and the pIC50 [2] was 6.57.

In the case of `Cc1cccc(C#Cc2cccc(OC(=O)CCc3ccccc3)c2)n1`, the pIC50 [2] was 6.05.

In the case of `Cc1cccc(C#Cc2cccc(OC(=O)CCCc3ccccc3)c2)n1`, the pIC50 [2] was 5.93.

In the case of `COc1cccc(C(=O)Oc2cccc(C#Cc3cccc(C)n3)c2)c1`, the pIC50 [2] was 5.76.

For `Cc1cccc(C#Cc2cccc(OS(C)(=O)=O)c2)n1`, the pIC50 [2] was 6.74.

In the case of `Cc1cccc(C#Cc2cccc(OCc3ccccc3)c2)n1`, the pIC50 [2] was 5.74.

`COc1cccc(COc2cccc(C#Cc3cccc(C)n3)c2)c1` gave a pIC50 [2] of 5.89.

`Cc1cccc(C#Cc2cccc(OCCc3ccc(F)cc3)c2)n1` was tested, and the pIC50 [2] was 5.69.

`Cc1cccc(C#Cc2cccc(-c3ccccc3)c2)n1` gave a pKi [1] of 6.00 and a pIC50 [2] of 6.20.

`Cc1cccc(C#Cc2cncc(-c3ccco3)c2)n1` was tested, and the pKi [1] was 8.19 and the pIC50 [2] was 6.69.

`COC(=O)c1cccc(C#Cc2cccc(C)n2)c1` gave a pIC50 [2] of 6.68.

With `Cc1cccc(C#Cc2cccc(OCc3cccc(I)c3)c2)n1` the pIC50 [2] was 5.70.

`Cc1cccc(C#Cc2cccc(OC(=O)c3cccc(I)c3)c2)n1` gave a pIC50 [2] of 5.96.

For `Cc1cccc(C#Cc2cccc(N)c2)n1`, the pIC50 [2] was 6.73.

With `Cc1cccc(C#Cc2cccc(-c3cccs3)c2)n1` the pKi [1] was 6.83 and the pIC50 [2] was 6.18.

In the case of `Cc1cccc(C#Cc2cccc([N+](=O)[O-])c2)n1`, the pIC50 [2] was 7.89.

Work on `Cc1cccc(C#Cc2cccc(OCC3CC3)c2)n1` yielded a pIC50 [2] of 6.38.

`Cc1cccc(C#Cc2cccc(OC(=O)c3ccccc3)c2)n1` showed a pIC50 [2] of 5.82.

For `Cc1cccc(C#Cc2cccc(OCCCCc3ccccc3)c2)n1`, the pIC50 [2] was 5.94.

In the case of `Cc1ccc(S(=O)(=O)Oc2cccc(C#Cc3cccc(C)n3)c2)cc1`, the pIC50 [2] was less than 5.00.

`Cc1cccc(C#Cc2cccc(OCCc3ccccc3)c2)n1` showed a pIC50 [2] of 5.80.

For `COc1cccc(C#Cc2cccc(C)n2)c1` [M-MPEP], the pIC50 [2] was 8.10.

`Cc1cccc(C#Cc2cccc(C#N)c2)n1` showed a pIC50 [2] of 8.30.

In the case of `Cc1cccc(C#Cc2cccc(OCCCc3ccccc3)c2)n1`, the pIC50 [2] was 5.92.

Work on `Cc1cccc(C#Cc2cccc(-c3ccco3)c2)n1` yielded a pKi [1] of 7.44 and a pIC50 [2] of 6.43.

In the case of `Cc1cccc(C#Cc2cccc(OC(=O)CCCBr)c2)n1`, the pIC50 [2] was 5.47.
